Data reported in US11008340B2, “Modulators of ROR-gamma” (Vitae Pharmaceuticals, LLC, priority 2015, dated 2021).
Where two headings read alike, the source gives them in different places.

What was measured:
[1] = biological target: T1, full-length RORγt in Jurkat cells (Homo sapiens, UniProt P51449); test: RORγt 5×RORE Assay in Jurkat Cells (Assay 2); assay type: cell-based; conditions: 5×RORE luciferase reporter
T1 construct: transcriptional activity of the full-length RORγt in Jurkat cells; host or cells: Jurkat cells (ATCC TIB-152)
T1 sequence (P51449 1-497 isoform P51449-2): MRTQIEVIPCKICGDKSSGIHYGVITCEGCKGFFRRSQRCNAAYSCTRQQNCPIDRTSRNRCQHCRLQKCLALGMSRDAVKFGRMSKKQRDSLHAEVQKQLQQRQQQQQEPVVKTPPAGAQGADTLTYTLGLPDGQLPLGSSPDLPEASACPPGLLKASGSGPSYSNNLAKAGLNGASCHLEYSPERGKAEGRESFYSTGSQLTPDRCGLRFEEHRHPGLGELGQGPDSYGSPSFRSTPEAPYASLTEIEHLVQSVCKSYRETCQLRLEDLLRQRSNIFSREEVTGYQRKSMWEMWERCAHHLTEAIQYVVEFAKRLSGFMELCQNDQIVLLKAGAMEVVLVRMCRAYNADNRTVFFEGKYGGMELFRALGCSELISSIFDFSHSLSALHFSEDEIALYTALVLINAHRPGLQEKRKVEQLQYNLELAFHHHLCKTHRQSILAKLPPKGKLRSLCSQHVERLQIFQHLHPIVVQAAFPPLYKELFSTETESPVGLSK
Procedure, shortened: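 Inverse agonism measured as reduced NanoGlo signal from secreted NanoLuc in conditioned supernatant after 16-18 hrs compound exposure (37° C, 0.1% DMSO). Reporter: 5×RORE-driven secNluc, co-transfected with full-length RORγt into Jurkat cells cultured in delipidated-FBS, phenol-red-free RPMI.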

[2] = biological target: T2, recombinant RORγ Ligand Binding Domain (LBD) protein (Homo sapiens, UniProt P51449); test: Radio-Ligand RORγ Binding Assay (Assay 1); conditions: radio-ligand competition, RORγ LBD, read-out: Avg ROR Bind Ki
T2 construct: 6×His; GST
T2 sequence (P51449 269-508 limits assumed): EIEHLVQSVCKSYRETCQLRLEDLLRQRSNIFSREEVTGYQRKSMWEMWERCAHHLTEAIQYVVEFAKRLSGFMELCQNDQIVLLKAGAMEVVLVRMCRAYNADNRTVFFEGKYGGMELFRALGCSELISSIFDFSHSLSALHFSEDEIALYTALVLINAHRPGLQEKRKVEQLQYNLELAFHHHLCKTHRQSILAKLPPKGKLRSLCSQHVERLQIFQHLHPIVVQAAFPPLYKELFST
Procedure, shortened: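 Cell-free SPA competition between compound and 25-hydroxy[26,27-^3H]-cholesterol for 6×His-GST-tagged RORγ LBD in 50 mM HEPES pH 7.4 with NaCl, MgCl2, glycerol, CHAPS, octylglucoside and DTT. Mix was shaken 20 min, held 10 min at rt, then read after poly-Lys YSi beads. IC50 came from a four-parameter fit, and Ki from radioligand KD.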

[3] = 25-hydroxy [26,27-3H]-cholesterol
[4] = Table 20, read-out: Avg ROR γt/5x IC5
[5] = head without unit (Tables 15, 17), read-out: Avg ROR γt/5x IC50
[6] = head without unit (Tables 15, 17)

Row | Compound | IC50 ([1]; read-out: Avg ROR γt/5x IC50) [nM] | Ki [2, 3] [nM] | IC50 [1, 4] [nM] | IC50 [1, 5] [nM] | Ki [2, 6] [nM]
1 | CC[C@H]1CN(c2ncc(C3CC3)cn2)Cc2cc(C(=O)N[C@@H](CO)c3ccc(S(=O)(=O)CC)cc3)ccc21 (single isomer, unassigned) [Hy7-11.2] |  | < 100 | > 1000 |  | 
2 | CCS(=O)(=O)c1ccc([C@@H](CO)NC(=O)c2ccc3c(OC[C@H]4CC[C@H](C(F)(F)F)CC4)nc(C)cc3c2)nc1 (single isomer, unassigned) [Hy1A-22.2] | 100 to 1000 | < 100 |  |  | 
3 | CCS(=O)(=O)c1ccc([C@H](CO)NC(=O)c2ccc3c(OCC4CC(F)(F)C4)nc(C)cc3c2)cc1 [Hy1A-12, (R)-1-((3,3-difluorocyclobutyl)methoxy)-N-(1-(4-(ethylsulfonyl)phenyl)-2-hydroxyethyl)-3-methylisoquinoline-6-carboxamide] | > 1000 | < 100 |  |  | 
4 | CC[C@@H]1CN(c2ncc(-c3ncco3)cn2)Cc2cc(C(=O)N[C@@H](CO)c3ccc(S(=O)(=O)CC)cc3)ccc21 (single isomer, unassigned) [Hy7-33.1] |  | < 100 | < 100 |  | 
5 | CCS(=O)(=O)c1ccc([C@H](CO)NC(=O)c2ccc3c(OCC4CCC(F)(F)CC4)nc(C)cc3c2)cc1 [Hy1A-14, (R)-1-((4,4-difluorocyclohexyl)methoxy)-N-(1-(4-(ethylsulfonyl)phenyl)-2-hydroxyethyl)-3-methylisoquinoline-6-carboxamide] | < 100 | < 100 |  |  | 
6 | CCS(=O)(=O)c1ccc([C@H](CO)NC(=O)c2ccc3c(C4CC4)n(C[C@H]4CC[C@H](C(F)(F)F)CC4)nc3c2)cc1 [Hy3A-1, 3-cyclopropyl-N-((R)-1-(4-(ethylsulfonyl)phenyl)-2-hydroxyethyl)-2-(((1r,4R)-4-(trifluoromethyl)cyclohexyl)methyl)-2H-indazole-6-carboxamide] | < 100 | < 100 |  |  | 
7 | CCS(=O)(=O)c1ccc([C@H](CO)NC(=O)c2ccc3c(C4CC4)n(Cc4ccc(C(F)(F)F)cc4)nc3c2)nc1 [Hy3A-7, (R)-3-cyclopropyl-N-(1-(5-(ethylsulfonyl)pyridin-2-yl)-2-hydroxyethyl)-2-(4-(trifluoromethyl)benzyl)-2H-indazole-6-carboxamide] | < 100 | < 100 |  |  | 
8 | CCc1c2ccc(C(=O)N[C@@H](CO)c3ccc(S(=O)(=O)CC)cc3)cc2nn1C[C@H]1CC[C@H](C(F)(F)F)CC1 [Hy3A-5, 3-ethyl-N-((R)-1-(4-(ethylsulfonyl)phenyl)-2-hydroxyethyl)-2-(((1r,4R)-4-(trifluoromethyl)cyclohexyl)methyl)-2H-indazole-6-carboxamide] | < 100 | < 100 |  |  | 
9 | CCS(=O)(=O)c1ccc(CNC(=O)c2ccc3c(OC4CCC(C(F)(F)F)CC4)nccc3c2)cc1 (single isomer, unassigned) [Hy1A-3.2, N-(4-(ethylsulfonyl)benzyl)-1-(((1r,4r)-4-(trifluoromethyl)cyclohexyl)oxy)isoquinoline-6-carboxamide] | > 1000 | < 100 |  |  | 
10 | CCS(=O)(=O)c1ccc(CNC(=O)c2cc3ccnc(OC[C@H]4CC[C@H](C(F)(F)F)CC4)c3n2C)cc1 [Hy4-1, N-(4-(ethylsulfonyl)benzyl)-1-methyl-7-(((1r,4r)-4-(trifluoromethyl)cyclohexyl)methoxy)-1H-pyrrolo[2,3-c]pyridine-2-carboxamide] |  |  |  | 100 to 1000 | < 100
11 | CCS(=O)(=O)c1ccc([C@H](CO)NC(=O)c2cc3ccnc(OC[C@H]4CC[C@H](C(F)(F)F)CC4)c3n2C)cc1 [Hy4-2, N-((R)-1-(4-(ethylsulfonyl)phenyl)-2-hydroxyethyl)-1-methyl-7-(((1r,4R)-4-(trifluoromethyl)cyclohexyl)methoxy)-1H-pyrrolo[2,3-c]pyridine-2-carboxamide] |  |  |  | < 100 | < 100

Continued, values first:

Row | IC50 ([1]; read-out: Avg ROR γt/5x IC50) [nM] | Ki [2, 3] [nM] | IC50 [1, 4] [nM] | IC50 [1, 5] [nM] | Ki [2, 6] [nM] | Compound
12 | 100 to 1000 | < 100 |  |  |  | CCS(=O)(=O)c1ccc(C(C)NC(=O)c2ccc3c(c2)CCN(Cc2cnc(C)cn2)C3C(C)C)cc1 (racemic) [Hy2A-18, N-(1-(4-(ethylsulfonyl)phenyl)ethyl)-1-isopropyl-2-((5-methylpyrazin-2-yl)methyl)-1,2,3,4-tetrahydroisoquinoline-6-carboxamide]
13 | < 100 | < 100 |  |  |  | CCS(=O)(=O)c1ccc(CNC(=O)c2ccc3c(c2)CCN(Cc2ccc(Cl)cc2)[C@H]3C(C)C)cc1 (single isomer, unassigned) [Hy2A-20.1]
14 |  | < 100 | > 1000 |  |  | CCS(=O)(=O)c1ccc(CNC(=O)c2ccc3c(c2)CN(c2nccc(C(F)(F)F)n2)C[C@H]3C(C)C)cc1 (single isomer, unassigned) [Hy7-14.1]
15 |  |  |  | 100 to 1000 | 100 to 1000 | CCS(=O)(=O)c1ccc(CNC(=O)c2cnc3c(c2)CCN(C[C@H]2CC[C@H](C(F)(F)F)CC2)[C@H]3C(C)C)nc1 (single isomer, unassigned) [Hy2B-10.1]
16 |  | < 100 | < 100 |  |  | CCOC(=O)c1cnc(N2Cc3cc(C(=O)NCc4ccc(S(=O)(=O)CC)cc4)ccc3[C@H](C(C)C)C2)nc1C(F)(F)F (single isomer, unassigned) [Hy7-26.1]
17 |  | < 100 | > 1000 |  |  | CCS(=O)(=O)c1ccc(CNC(=O)c2ccc3c(c2)CN(c2ncc(C(F)(F)F)cn2)C[C@@H]3C(F)(F)F)cc1 (single isomer, unassigned) [Hy7-36.2]
18 |  | < 100 | < 100 |  |  | CC[C@@H]1CN(c2ccc(C(F)(F)F)cc2)Cc2cc(C(=O)NCc3ccc(S(=O)(=O)CC)cc3)ccc21 (single isomer, unassigned) [Hy7-7.1]
19 |  | < 100 | > 1000 |  |  | CCS(=O)(=O)c1ccc(CNC(=O)c2ccc3c(c2)CN(c2ncc(F)cn2)C[C@H]3C(C)C)cc1 (single isomer, unassigned) [Hy7-1.1]
20 | 100 to 1000 | < 100 |  |  |  | CCS(=O)(=O)c1ccc(CNC(=O)c2sc3nc(C)nc(OCc4ccc(C(F)(F)F)cc4)c3c2C)cc1 [Hy6-1, N-(4-(ethylsulfonyl)benzyl)-2,5-dimethyl-4-((4-(trifluoromethyl)benzyl)oxy)thieno[2,3-d]pyrimidine-6-carboxamide]
21 | > 1000 | < 100 |  |  |  | CCS(=O)(=O)c1ccc(CNC(=O)c2ccc3c(c2)CCN(c2nccc(C(F)(F)F)n2)C3C(C)C)cc1 (stereo not shown) [Hy2A-3, N-(4-(ethylsulfonyl)benzyl)-1-isopropyl-2-(4-(trifluoromethyl)pyrimidin-2-yl)-1,2,3,4-tetrahydroisoquinoline-6-carboxamide]
22 |  | < 100 | < 100 |  |  | CCS(=O)(=O)c1ccc(CNC(=O)c2ccc3c(c2)CN(Cc2ccc(F)cc2)C[C@@H]3C(C)C)cc1 (single isomer, unassigned) [Hy7-27.2]
23 |  |  |  | 100 to 1000 | < 100 | CCS(=O)(=O)c1ccc(CNC(=O)c2cnc3c(c2)CCN(Cc2ccc(Cl)cc2)C3C(C)C)cc1 (single isomer, unassigned) [Hy2B-8.1]
24 | 100 to 1000 | < 100 |  |  |  | CCS(=O)(=O)c1ccc(CNC(=O)c2ccc3c(c2)CCN(Cc2ccc(Cl)cc2)[C@@H]3C(C)C)cc1 (single isomer, unassigned) [Hy2A-20.2]
25 |  | < 100 | > 1000 |  |  | CCS(=O)(=O)c1ccc(CNC(=O)c2ccc3c(c2)CN(c2ncc(Cl)cn2)C[C@@H]3C(C)C)cc1 (single isomer, unassigned) [Hy7-3.2]
26 | 100 to 1000 | < 100 |  |  |  | CCS(=O)(=O)c1ccc(CNC(=O)c2ccc3c(c2)CCN(Cc2ccc(Cl)cc2)C3C)cc1 (racemic) [Hy2A-11, 2-(4-chlorobenzyl)-N-(4-(ethylsulfonyl)benzyl)-1-methyl-1,2,3,4-tetrahydroisoquinoline-6-carboxamide]
